From PubChem BioAssay AID256 (DTP/NCI, 2004)
Values joined by “and” are separate entries in the source; they are usually repeats but may differ in a detail not shown here. Equal entries are not always repeated. Toxic doses and inconclusive results are not listed. Rule for the calls: active = survival T/C of 150% or more; inactive = T/C below 125% in these data.

Tested on: CD2F1 mice, L1210 leukemia ip, survival T/C
Assay: NCI In Vivo Anticancer Drug Screen. Data for tumor model L1210 Leukemia (intraperitoneal) in CD2F1 (CDF1) mice
Conditions: higher = longer survival
Procedure, shortened: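 Ratio T/C, where T is the treated-group value and C the vehicle-dosed control value, from mice implanted with a transplantable tumor.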

[1] = endpoint: mean survival time, dose: 100.0 mg/kg/injection, schedule: Q04DX003 (ip), vehicle: saline with Tween-80
[2] = endpoint: mean survival time, dose: 200.0 mg/kg/injection, schedule: Q04DX003 (ip), vehicle: saline with Tween-80
[3] = endpoint: mean survival time, dose: 400.0 mg/kg/injection, schedule: Q04DX003 (ip), vehicle: saline with Tween-80
[4] = endpoint: mean survival time, dose: 100.0 mg/kg/injection, schedule: Q04DX003 (ip), vehicle: saline
[5] = endpoint: mean survival time, dose: 200.0 mg/kg/injection, schedule: Q04DX003 (ip), vehicle: saline
[6] = endpoint: mean survival time, dose: 25.0 mg/kg/injection, schedule: Q01DX009 (ip), vehicle: saline
[7] = endpoint: mean survival time, dose: 50.0 mg/kg/injection, schedule: Q01DX009 (ip), vehicle: saline with Tween-80
[8] = endpoint: mean survival time, dose: 50.0 mg/kg/injection, schedule: Q01DX009 (ip), vehicle: saline
[9] = endpoint: mean survival time, dose: 100.0 mg/kg/injection, schedule: Q01DX009 (ip), vehicle: saline with Tween-80
[10] = endpoint: mean survival time, dose: 100.0 mg/kg/injection, schedule: Q01DX009 (ip), vehicle: saline
[11] = endpoint: mean survival time, dose: 200.0 mg/kg/injection, schedule: Q01DX009 (ip), vehicle: saline with Tween-80
[12] = endpoint: mean survival time, dose: 400.0 mg/kg/injection, schedule: Q01DX009 (ip), vehicle: saline with Tween-80
[13] = endpoint: mean survival time, dose: 100.0 mg/kg/injection, schedule: Q04DX003 (ip), vehicle: alcohol
[14] = endpoint: mean survival time, dose: 200.0 mg/kg/injection, schedule: Q04DX003 (ip), vehicle: alcohol
[15] = endpoint: mean survival time, dose: 400.0 mg/kg/injection, schedule: Q04DX003 (ip), vehicle: alcohol
[16] = endpoint: mean survival time, dose: 75.0 mg/kg/injection, schedule: Q01DX001 (ip), vehicle: saline
[17] = endpoint: mean survival time, dose: 150.0 mg/kg/injection, schedule: Q01DX001 (ip), vehicle: saline
[18] = endpoint: mean survival time, dose: 100.0 mg/kg/injection, schedule: Q01DX001 (ip), vehicle: saline

Measured: T/C

CC(C)([NH-])C[NH-].O=C(O)CC(=O)O.[Pt+2]
inactive: endpoint: median survival time, dose: 20.0 mg/kg/injection, schedule: Q04DX003 (ip), vehicle: distilled water + Tween-80 104 % of control

Cc1[nH]c2cc(Cl)ccc2c1CC(=O)O
inactive: endpoint: mean survival time, dose: 100.0 mg/kg/injection, schedule: Q01DX001 (ip), vehicle: other 101 % of control | endpoint: mean survival time, dose: 200.0 mg/kg/injection, schedule: Q01DX001 (ip), vehicle: other 98 % of control | endpoint: mean survival time, dose: 400.0 mg/kg/injection, schedule: Q01DX001 (ip), vehicle: other 98 % of control

CN(C)c1ccc(/C=N\O)c2c1CCC2
inactive: [1] 102 % of control | [2] 102 % of control | [3] 100 % of control

C[N+](C)(C)CC1CO1 (configuration not stated)
inactive: [4] 106 % of control | [5] 94 % of control

C=CCOCC1CO1 (configuration not stated)
inactive: endpoint: mean survival time, dose: 12.5 mg/kg/injection, schedule: Q01DX009 (ip), vehicle: saline 102 % of control and 103 % of control | [6] 102 % of control and 111 % of control | [7] 100 % of control | [8] 98 % of control and 108 % of control | [9] 97 % of control | [10] 94 % of control and 104 % of control | [11] 103 % of control | endpoint: mean survival time, dose: 200.0 mg/kg/injection, schedule: Q01DX009 (ip), vehicle: saline 114 % of control and 105 % of control | [12] 105 % of control

Nc1cc2c(cc1Br)-c1c(C(=O)O)cccc1C2O (configuration not stated)
inactive: endpoint: median survival time, dose: 50.0 mg/kg/injection, schedule: Q01DX005 (ip), vehicle: sodium bicarbonate 100 % of control | endpoint: median survival time, dose: 100.0 mg/kg/injection, schedule: Q01DX005 (ip), vehicle: sodium bicarbonate 101 % of control | endpoint: median survival time, dose: 200.0 mg/kg/injection, schedule: Q01DX005 (ip), vehicle: sodium bicarbonate 113 % of control | endpoint: median survival time, dose: 400.0 mg/kg/injection, schedule: Q01DX005 (ip), vehicle: sodium bicarbonate 122 % of control | endpoint: median survival time, dose: 800.0 mg/kg/injection, schedule: Q01DX005 (ip), vehicle: sodium bicarbonate 122 % of control

COc1cc2cc(c1Cl)N(C)C(=O)C[C@H](OC(=O)[C@H](C)N(C)C(C)=O)[C@]1(C)O[C@H]1[C@H](C)[C@@H]1C[C@@](O)(NC(=O)O1)[C@H](OC)C=C/C=C(\C)C2
inactive: endpoint: mean survival time, dose: 0.5 mg/kg/injection, schedule: Q01DX009 (ip), vehicle: saline 104 % of control | endpoint: mean survival time, dose: 1.0 mg/kg/injection, schedule: Q01DX009 (ip), vehicle: saline 109 % of control | endpoint: mean survival time, dose: 2.0 mg/kg/injection, schedule: Q01DX009 (ip), vehicle: saline 107 % of control | endpoint: mean survival time, dose: 32.0 mg/kg/injection, schedule: Q01DX009 (ip), vehicle: saline 91 % of control | endpoint: mean survival time, dose: 8.0 micrograms/kg/injection, schedule: Q01DX009 (ip), vehicle: saline + alcohol 111 % of control | endpoint: mean survival time, dose: 12.0 micrograms/kg/injection, schedule: Q01DX009 (ip), vehicle: saline + alcohol 109 % of control | endpoint: mean survival time, dose: 16.0 micrograms/kg/injection, schedule: Q01DX009 (ip), vehicle: saline + alcohol 112 % of control | endpoint: mean survival time, dose: 32.0 micrograms/kg/injection, schedule: Q01DX009 (ip), vehicle: saline + alcohol 122 % of control | endpoint: mean survival time, dose: 200.0 micrograms/kg/injection, schedule: Q01DX009 (ip), vehicle: saline + alcohol 120 % of control | endpoint: median survival time, dose: 4.0 micrograms/kg/injection, schedule: Q01DX009 (ip), vehicle: clinical formulation 117 % of control | endpoint: median survival time, dose: 8.0 micrograms/kg/injection, schedule: Q01DX009 (ip), vehicle: clinical formulation 117 % of control | endpoint: median survival time, dose: 16.0 micrograms/kg/injection, schedule: Q04DX003 (ip), vehicle: clinical formulation 112 % of control | endpoint: median survival time, dose: 32.0 micrograms/kg/injection, schedule: Q04DX003 (ip), vehicle: clinical formulation 117 % of control | endpoint: median survival time, dose: 64.0 micrograms/kg/injection, schedule: Q01DX001 (ip), vehicle: clinical formulation 110 % of control | endpoint: median survival time, dose: 512.0 micrograms/kg/injection, schedule: Q04DX003 (ip), vehicle: clinical formulation 96 % of control

Cc1cccc(CNc2ccc(S(=O)(=O)c3ccc(NCc4cccc(C)n4)cc3)cc2)n1
inactive: [4] 97 % of control | [5] 112 % of control | endpoint: mean survival time, dose: 400.0 mg/kg/injection, schedule: Q04DX003 (ip), vehicle: saline 93 % of control

COc1ccc(C(Sc2ccccc2)c2ccc(OC)cc2)cc1
inactive: [9] 95 % of control | [1] 95 % of control | [11] 90 % of control | [2] 95 % of control | [12] 86 % of control | [3] 96 % of control

COC1OC(C2N(c3ccccc3)CCN2c2ccccc2)=CC(OC(C)=O)C1OC(C)=O (configuration not stated)
inactive: [1] 97 % of control | [2] 107 % of control | [3] 95 % of control

CCOC(=O)/C=C(\C)Sc1ccc(Cl)cc1
inactive: [13] 92 % of control | [14] 87 % of control | [15] 102 % of control

CN(CCO)N=Nc1ccccc1
inactive: [16] 102 % of control | [17] 105 % of control

C[Si](C)(C)C1CCC2C3C=CC(C3)C21 (configuration not stated)
inactive: [13] 107 % of control | [14] 96 % of control | [15] 96 % of control

Cc1ccc(S(=O)(=O)N2CCC(C(=O)O)(c3ccccc3)CC2)cc1
inactive: [1] 113 % of control | [2] 98 % of control | [3] 95 % of control

CCN(CC)CCC(=O)c1ccc2ccc3ccccc3c2c1
inactive: endpoint: mean survival time, dose: 50.0 mg/kg/injection, schedule: Q01DX001 (ip), vehicle: saline 93 % of control | [18] 89 % of control

CC(=O)c1ccc(N=Nc2c(N)nc(N)[nH]c2=O)cc1
inactive: [9] 86 % of control | [11] 105 % of control | [12] 102 % of control

O=C1NC(=O)C(Cc2ccccc2)(Cc2ccccc2)C(=O)N1Cc1ccccc1
inactive: [7] 100 % of control | [9] 91 % of control | [11] 100 % of control

NOCc1ccccc1CON
inactive: [16] 96 % of control | [17] 100 % of control | endpoint: mean survival time, dose: 300.0 mg/kg/injection, schedule: Q01DX001 (ip), vehicle: saline 100 % of control

CN=NCCO
inactive: [6] 104 % of control | [8] 96 % of control | [18] 94 % of control | [10] 100 % of control | endpoint: mean survival time, dose: 200.0 mg/kg/injection, schedule: Q01DX001 (ip), vehicle: saline 94 % of control
